In patent US20150359802A1, “PARENTERAL PHARMACEUTICAL FORM WHICH RELEASES AROMATSE INHIBITOR AND GESTAGENS, FOR THE TREATMENT OF ENDOMETRIOSIS” (Bayer Intellectual Property GmbH, priority 2010, published 2015):
Entries after “also recorded” stand apart in the source; their conditions may differ. Where two headings read alike, the source gives them in different places.

Key:
ovulation = settings: cited from earlier work
pituitary-ovarian axis = test: IVR study in cynomolgus monkeys: estradiol, FSH and progesterone levels; type: in vivo, cynomolgus monkey
Excerpt: (§1) This comprises, among other things, cycle length, hormone receptors, morphology, endocrine system and regulation of the pituitary-ovarian axis (Borghi, M. R., R. Niesvisky, et al. (1983). “Administration of agonistic and antagonistic analogues of LH-RH induce anovulation in Macaca fasicularis.” Contraception 27(6): 619-626. Satoru Oneda, T. I., Katsumi Hamana (1996). “Ovarian Response to Exogenous Gonadotropins in Infant Cynomolgus Monkeys” International Journal of Toxicology, 15(3): 194-204). The pharmacodynamic and pharmacokinetic effect of intravaginally administered dosages of the aromatase inhibitor anastrozole was studied over the duration of a menstrual cycle by inserting a vaginal ring (IVR) having three different release rates. Among other things, the influence on the pituitary-ovarian axis was studied by determining the hormones estradiol, FSH, progesterone (the blood collections required for this were carried out over the entire experimental period; on day 1, four collections [0 h, 1 h, 3 h, 6 h after insertion of the IVR]; 1 collection each on days 2 and 3; after this time point, further collections followed on every 3rd day) and by ultrasound scans of the ovary (2× per week). Hormone determination was carried out according to the instructions provided by the supplier (estradiol [Siemens/DPC], progesterone [Beckmann-Culter/DSL], FSH [SHG]). An IVR having an initial in vitro release of 0 μg/day (placebo, no anastrozole), 390 μg/day, 85 μg/day or 27 μg/day was inserted into five animals per group one to three days after the last day of menstruation. Animals having irregular cycles were excluded from the experiment.

ovary = test: IVR study in cynomolgus monkeys: ultrasound scans of the ovary; type: in vivo, cynomolgus monkey; settings: for Ovarian cysts (ultrasound): cycle days 1-26
Excerpt: as §1

[1] = Plasma concentration of anastrozole after IVR administration and PK-based in vivo release; design: species or system female cynomolgus monkeys; settings: in vitro release in buffer vs calculated in vivo release, primate experiment
Description: The concentration of anastrozole in plasma samples was quantitatively determined by means of liquid-liquid extraction with liquid chromatography coupled to tandem mass spectrometry (LC/ESI-MS/MS). The analyses were carried out on an Agilent 1200 and an AB Sciex Triple Quad 5500 in positive ionization mode. For this purpose, 100 μl were initially taken from each plasma sample, admixed with 300 μl of an aqueous solution containing any non-structurally-related compound as internal standard, and extracted with 1.3 ml of methyl tert-butyl ether on a Perkin Elmer Mass Prep Station. […] 5 μl of this were injected into the LC/MS/MS, the m/z transition 294 ([M+H]+)→225 was recorded, and the signal was integrated with the AB Sciex Software Analyst 1.5. The concentrations of the plasma samples were determined from the resulting areas with the aid of a calibration curve present in the same sequence (0, 0.0500 to 1000 nM in plasma, n=2). […]
The mean plasma concentration (Css) of anastrozole was calculated as the mean value of all measured concentrations per dose group from the day after insertion of the IVR up to the end of the experiment.
The mean in vivo release rates (Rin) from the IVR were subsequently calculated according to the equation: Rin=Css*CL (see table X). […]

[2] = Plasma protein binding by equilibrium dialysis, cynomolgus monkey plasma; type: in vitro ADME; settings: cynomolgus monkey, plasma, seven hours at 37° C., read-out: Plasma protein binding [free fraction, fu]
plasma protein [3] = test: as above; type: in vitro ADME; settings: seven hours at 37° C.
[4] = Plasma protein binding by equilibrium dialysis, human plasma; type: in vitro ADME; settings: human, plasma, seven hours at 37° C., read-out: Plasma protein binding [free fraction, fu]
plasma protein [5] = test: as above; type: in vitro ADME; settings: seven hours at 37° C.
systemic estrogen levels = settings: 1 mg/day, post-menopausal women; cited from earlier work
ovarian stimulation = settings: applied orally; cited from earlier work
[6] = cited from earlier work
in vivo = settings: female, cynomolgus monkey, plasma, iv, 0.2 mg/kg
[7] = Estimation of IVR release rate and serum level for human application
Description: Subsequently, an estimation was made of the in vitro IVR release rate of an IVR for human application, which is necessary to achieve serum levels which led to a lowering of estradiol in the monkeys. […] The corresponding effective serum concentration in humans is estimated to be 9 μg/l, taking into account species-specific plasma protein binding, according to equation (1) below.
The mean in vivo release rate from the IVR which is necessary to achieve a plasma concentration of 9 μg/l in humans is calculated according to equation 2. For this equation, the plasma clearance of anastrozole in humans is required.

[8] = IVR 27 μg/day initial in vitro release
[9] = IVR 85 μg/day initial in vitro release
[10] = IVR 390 μg/day initial in vitro release

## C#C[C@]1(OC(C)=O)CC[C@H]2[C@@H]3CCC4=CC(=NO)CC[C@@H]4[C@H]3CC[C@@]21CC (mixture of isomers) [Norgestimate]
ovulation; Neumann et al
  Ovulation inhibition dose: 200 μg/day p.o.
ovulation; Taubert & Kuhl
  Ovulation inhibition dose: 200 μg/day p.o.

## C#C[C@]1(O)CC[C@H]2[C@@H]3CCC4=CC(=O)CC[C@@H]4[C@H]3C(=C)C[C@@]21CC [3-Keto-Desogestrel]
ovulation; Taubert & Kuhl
  Ovulation inhibition dose: 60 μg/day p.o.

## CC(C)(C#N)c1cc(Cn2cncn2)cc(C(C)(C)C#N)c1 [Anastrozole, anastrozole]
pituitary-ovarian axis; 390 μg per day initial release, P value <0.0478
  estradiol levels during the follicular phase compared to the placebo group: lowers the estradiol levels significantly; also recorded: significant fall during the follicular phase
pituitary-ovarian axis; [8]
  E2 AUC (cycle days 1-26): 4862 ± 1986 pmol/L
  E2 AUC (follicular, cycle days 1-17): 3854 ± 927.5 pmol/L/day
  E2 AUC (luteal, cycle days 17-26): 403.2 ± 169.7 pmol/L
  FSH Mean level/day without preovulatory maximum: 5.52 ± 3.07 µg/L
  Progesterone Mean level/day Follicular phase: 5.57 ± 5.11 nmol/L
  Progesterone Mean level/day Luteal phase: 91.92 ± 52.78 nmol/L
pituitary-ovarian axis; [9]
  E2 AUC (cycle days 1-26): 4126 ± 2063 pmol/L
  E2 AUC (follicular, cycle days 1-17): 3235 ± 1101 pmol/L/day
  E2 AUC (luteal, cycle days 17-26): 605.1 ± 264.1 pmol/L
  FSH Mean level/day without preovulatory maximum: 4.90 ± 2.58 µg/L
  Progesterone Mean level/day Follicular phase: 6.58 ± 3.91 nmol/L
  Progesterone Mean level/day Luteal phase: 60.02 ± 22.65 nmol/L
pituitary-ovarian axis; [10]
  E2 AUC (cycle days 1-26): 2784 ± 999.8 pmol/L
  E2 AUC (follicular, cycle days 1-17): 1978 ± 350.6 pmol/L/day
  E2 AUC (luteal, cycle days 17-26): 342.9 ± 135.2 pmol/L
  FSH Mean level/day without preovulatory maximum: 4.83 ± 2.91 µg/L
  Progesterone Mean level/day Follicular phase: 4.58 ± 2.64 nmol/L
  Progesterone Mean level/day Luteal phase: 92.88 ± 55.50 nmol/L
pituitary-ovarian axis; at the dosages used (27, 85, 390 μg/day), compared to placebo
  counterregulation by the pituitary-ovarian axis: fails to occur
ovary; [8]
  Ovarian cysts (ultrasound): None
ovary; [9]
  Ovarian cysts (ultrasound): None
ovary; [10]
  Ovarian cysts (ultrasound): None
ovary; at the dosages used (27, 85, 390 μg/day)
  formation of ovarian cysts: no formation of ovarian cysts
[1]
  in vitro/in vivo correction factor: 1.1
[2]
  fraction unbound at 7 h: 0.52
Plasma protein [3]
  Plasma protein binding [free fraction, fu]: 34%
[4]
  fraction unbound at 7 h: 0.34
Plasma protein [5]
  Plasma protein binding [free fraction, fu]: 52%
Systemic estrogen levels
  reduction of systemic estrogen levels: more than 85%
Ovarian stimulation
  oral dosage at which ovarian stimulation can occur: 1 mg
[6]; Human, oral administration
  CLpl (CL/F): 0.33 mL/min/kg
[6]; humans
  oral bioavailability (F): approximately 1
In vivo
  clearance: 9.67 mL/min/kg
[7]; […]
  initial in vitro release rate, for humans: about 350 μg per day
[7]; decrease 32% in 4 weeks, human dose
  Calculated initial in vitro IVR release rate (in buffer) with a decreasing release rate: ≈350 μg/day/60 kg patient
[7]; from monkey Css 5.9 μg/l, corrected for species-specific plasma protein binding
  corresponding effective serum concentration in humans: 9 µg/L
[7]; in vitro/in vivo correction factor 1.1
  constant in vitro release rate in buffer, for humans: 270 µg/day
[7]; to achieve levels that lowered estradiol in the monkeys
  human in vivo release rate, kept constant: 246 µg/day
[7]; to maintain in humans plasma levels of the effective dose in cynomolgus monkeys
  Calculated constant in vitro IVR release rate (in buffer): ≈270 μg/day/60 kg patient
[7]; to maintain plasma levels of the effective dose in cynomolgus monkeys
  Calculated constant in vivo IVR release rate in humans: ≈250 μg/day/60 kg patient

## CC(=O)O[C@]1(C(C)=O)CC[C@H]2[C@@H]3C=C(Cl)C4=CC(=O)CC[C@]4(C)[C@H]3CC[C@@]21C [Chlormanidone acetate]
ovulation; Neumann et al
  Ovulation inhibition dose: 1500-2000 μg/day p.o.
ovulation; Taubert & Kuhl
  Ovulation inhibition dose: 1700 μg/day p.o.

## CC(=O)O[C@]1(C(C)=O)CC[C@H]2[C@@H]3C=C(Cl)C4=CC(=O)[C@@H]5C[C@@H]5[C@]4(C)[C@H]3CC[C@@]21C [Cyproterone acetate]
ovulation; Neumann et al
  Ovulation inhibition dose: 1000 μg/day p.o.
ovulation; Taubert & Kuhl
  Ovulation inhibition dose: 1000 μg/day p.o.

## C#C[C@]1(O)CC[C@H]2[C@@H]3CCC4=CCCC[C@@H]4[C@H]3C(=C)C[C@@]21CC [Desogestrel]
ovulation; Neumann et al
  Ovulation inhibition dose: 60 μg/day p.o.
ovulation; Taubert & Kuhl
  Ovulation inhibition dose: 60 μg/day p.o.

## C[C@]12CCC3=C4CCC(=O)C=C4CC[C@H]3[C@@H]1CC[C@@]2(O)CC#N [Dienogest]
ovulation; Neumann et al
  Ovulation inhibition dose: 1000 μg/day p.o.

## C[C@]12CCC(=O)C=C1[C@@H]1C[C@@H]1[C@H]1[C@@H]3[C@@H]4C[C@@H]4[C@@]4(CCC(=O)O4)[C@@]3(C)CC[C@@H]12 [Drospirenone]
ovulation; Neumann et al
  Ovulation inhibition dose: 2000 μg/day p.o.

## C#C[C@]1(O)C=C[C@H]2[C@@H]3CCC4=CC(=O)CC[C@@H]4[C@H]3CC[C@@]21CC [Gestodene]
ovulation; Neumann et al
  Ovulation inhibition dose: 30 μg/day p.o.
ovulation; Taubert & Kuhl
  Ovulation inhibition dose: 30 μg/day p.o.

## N#Cc1ccc(C(c2ccc(C#N)cc2)n2cncn2)cc1 [Letrozole, letrozole]
Ovarian stimulation
  oral dosage at which ovarian stimulation can occur: 2.5 mg

## C#C[C@]1(O)CC[C@H]2[C@@H]3CCC4=CCCC[C@@H]4[C@H]3CC[C@@]21C [Lynestrenol]
ovulation; Neumann et al
  Ovulation inhibition dose: 2000 μg/day p.o.
ovulation; Taubert & Kuhl
  Ovulation inhibition dose: 2000 μg/day p.o.

## CC(=O)O[C@]1(C(C)=O)CC[C@H]2[C@@H]3C[C@H](C)C4=CC(=O)CC[C@]4(C)[C@H]3CC[C@@]21C [Medroxyprogesterone acetate]
ovulation; Neumann et al
  Ovulation inhibition dose: 10 μg/day p.o.

## C#C[C@]1(OC(C)=O)CC[C@H]2[C@@H]3CCC4=CC(=O)CC[C@@H]4[C@H]3CC[C@@]21C [Norethisterone acetate]
ovulation; Neumann et al
  Ovulation inhibition dose: 500 μg/day p.o.

## C#C[C@]1(O)CC[C@H]2[C@@H]3CCC4=CC(=O)CC[C@@H]4[C@H]3CC[C@@]21C [Norethisterone]
ovulation; Neumann et al
  Ovulation inhibition dose: 500 μg/day p.o.
ovulation; Taubert & Kuhl
  Ovulation inhibition dose: 400 μg/day p.o.
